Source: patent publication US20250170248A1, “SMARCA DEGRADERS AND USES THEREOF” (Kymera Therapeutics, Inc., priority 2021, published 2025)

Assays:
Assay type in all cases: cell-based
[1] = target: T1, SMARCA2 (Homo sapiens, UniProt P51531); assay: MSD SMARCA2 degradation in A549 cell line; settings: for Dmax: A549, A549 cells; for Dmax / DC50: 24 h; for DC50: read-out: SMARCA2 MSD A549 degradation 24 h: Average external-Abs DC50
In short: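 A549 cells treated 24 h with compound, 3-fold series from 1000 nM. Lysates captured on MSD plates and SMARCA2 quantified with anti-SMARCA2 and SULFO-TAG secondary antibodies (electrochemiluminescence). DC50 and Dmax (% degradation at 24 h) reported as letter bins.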

[2] = target: T1, SMARCA2; assay: SMARCA2 Western blot degradation in MV4-11 cells; set-up: SMARCA2/SMARCA4 protein degradation selectivity in MV4-11 cells; endogenous in cells; host or cells: MV4-11; settings: for Dmax: MV4-11, MV4-11 cells, read-out: SMARCA2 MSD MV411 degradation 24 h: average Dmax %; for DC50: read-out: SMARCA2 MSD MV411 degradation 24 h: Mean external-Abs DC50; for Selectivity in MV411: SMARCA2/4 selectivity
[3] = target: T2, SMARCA4 (Homo sapiens, UniProt P51532); assay: SMARCA4 Western blot degradation in MV4-11 cells; settings: for Dmax: MV4-11, MV4-11 cells, read-out: SMARCA4 MSD MV411 degradation 24 h: average Dmax %; for Dmax / DC50: 24 h; for DC50: read-out: SMARCA4 MSD MV411 degradation 24 h: Mean external-Abs DC50
T2 construct: SMARCA2/SMARCA4 protein degradation selectivity in MV4-11 cells; endogenous in cells; host or cells: MV4-11
T2 sequence (P51532 whole entry): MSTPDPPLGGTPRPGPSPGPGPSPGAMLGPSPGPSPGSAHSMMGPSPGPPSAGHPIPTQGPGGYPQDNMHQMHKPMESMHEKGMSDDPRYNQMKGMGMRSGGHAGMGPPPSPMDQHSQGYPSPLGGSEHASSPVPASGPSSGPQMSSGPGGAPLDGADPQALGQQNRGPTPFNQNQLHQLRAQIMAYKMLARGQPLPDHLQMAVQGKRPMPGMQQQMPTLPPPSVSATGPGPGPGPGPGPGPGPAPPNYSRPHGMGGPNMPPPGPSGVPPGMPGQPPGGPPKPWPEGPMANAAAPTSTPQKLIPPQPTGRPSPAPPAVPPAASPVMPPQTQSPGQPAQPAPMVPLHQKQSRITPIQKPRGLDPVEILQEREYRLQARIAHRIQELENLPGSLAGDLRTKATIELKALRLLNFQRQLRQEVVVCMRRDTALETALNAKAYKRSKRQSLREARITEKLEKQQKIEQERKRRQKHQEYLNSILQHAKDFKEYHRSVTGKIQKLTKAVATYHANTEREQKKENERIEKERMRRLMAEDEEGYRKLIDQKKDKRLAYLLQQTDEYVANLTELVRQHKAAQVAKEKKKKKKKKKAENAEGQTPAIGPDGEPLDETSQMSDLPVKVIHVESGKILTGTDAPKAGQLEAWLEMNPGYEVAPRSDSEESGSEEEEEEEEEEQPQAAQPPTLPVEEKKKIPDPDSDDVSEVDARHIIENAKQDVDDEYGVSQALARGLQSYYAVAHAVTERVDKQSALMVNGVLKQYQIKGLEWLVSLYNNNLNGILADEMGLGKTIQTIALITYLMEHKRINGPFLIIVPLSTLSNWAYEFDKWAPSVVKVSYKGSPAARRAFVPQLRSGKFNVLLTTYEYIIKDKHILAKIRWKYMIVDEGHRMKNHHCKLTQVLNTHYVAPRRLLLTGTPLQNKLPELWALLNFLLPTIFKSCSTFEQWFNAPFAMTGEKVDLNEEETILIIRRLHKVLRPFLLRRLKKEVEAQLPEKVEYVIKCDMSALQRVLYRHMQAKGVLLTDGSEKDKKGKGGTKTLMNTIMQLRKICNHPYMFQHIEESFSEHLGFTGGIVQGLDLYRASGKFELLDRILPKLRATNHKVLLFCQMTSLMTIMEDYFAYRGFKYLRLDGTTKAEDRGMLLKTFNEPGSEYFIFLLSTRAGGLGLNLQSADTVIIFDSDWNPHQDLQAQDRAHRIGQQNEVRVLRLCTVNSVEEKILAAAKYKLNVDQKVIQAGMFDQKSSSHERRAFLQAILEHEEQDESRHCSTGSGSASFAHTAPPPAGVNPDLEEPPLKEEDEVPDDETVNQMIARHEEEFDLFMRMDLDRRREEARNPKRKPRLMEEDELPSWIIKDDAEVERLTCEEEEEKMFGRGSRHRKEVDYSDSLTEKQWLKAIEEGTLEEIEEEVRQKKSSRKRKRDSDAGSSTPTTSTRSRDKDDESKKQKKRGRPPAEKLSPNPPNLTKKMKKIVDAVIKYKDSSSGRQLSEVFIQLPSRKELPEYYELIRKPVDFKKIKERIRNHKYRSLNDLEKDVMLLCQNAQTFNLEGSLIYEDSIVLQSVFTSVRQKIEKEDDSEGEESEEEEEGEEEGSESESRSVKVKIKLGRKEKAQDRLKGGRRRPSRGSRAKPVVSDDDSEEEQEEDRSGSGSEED
In short: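 MV4-11 cells (4×10^6/well) treated with compound for 24 h, lysed in RIPA with protease/phosphatase inhibitors, and SMARCA2, SMARCA4 and beta-actin detected by Western blot with LI-COR readout. Values reported as letter-coded DC50, 24 h Dmax % and SMARCA2/4 selectivity fold.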

T1 sequence (P51531 whole entry): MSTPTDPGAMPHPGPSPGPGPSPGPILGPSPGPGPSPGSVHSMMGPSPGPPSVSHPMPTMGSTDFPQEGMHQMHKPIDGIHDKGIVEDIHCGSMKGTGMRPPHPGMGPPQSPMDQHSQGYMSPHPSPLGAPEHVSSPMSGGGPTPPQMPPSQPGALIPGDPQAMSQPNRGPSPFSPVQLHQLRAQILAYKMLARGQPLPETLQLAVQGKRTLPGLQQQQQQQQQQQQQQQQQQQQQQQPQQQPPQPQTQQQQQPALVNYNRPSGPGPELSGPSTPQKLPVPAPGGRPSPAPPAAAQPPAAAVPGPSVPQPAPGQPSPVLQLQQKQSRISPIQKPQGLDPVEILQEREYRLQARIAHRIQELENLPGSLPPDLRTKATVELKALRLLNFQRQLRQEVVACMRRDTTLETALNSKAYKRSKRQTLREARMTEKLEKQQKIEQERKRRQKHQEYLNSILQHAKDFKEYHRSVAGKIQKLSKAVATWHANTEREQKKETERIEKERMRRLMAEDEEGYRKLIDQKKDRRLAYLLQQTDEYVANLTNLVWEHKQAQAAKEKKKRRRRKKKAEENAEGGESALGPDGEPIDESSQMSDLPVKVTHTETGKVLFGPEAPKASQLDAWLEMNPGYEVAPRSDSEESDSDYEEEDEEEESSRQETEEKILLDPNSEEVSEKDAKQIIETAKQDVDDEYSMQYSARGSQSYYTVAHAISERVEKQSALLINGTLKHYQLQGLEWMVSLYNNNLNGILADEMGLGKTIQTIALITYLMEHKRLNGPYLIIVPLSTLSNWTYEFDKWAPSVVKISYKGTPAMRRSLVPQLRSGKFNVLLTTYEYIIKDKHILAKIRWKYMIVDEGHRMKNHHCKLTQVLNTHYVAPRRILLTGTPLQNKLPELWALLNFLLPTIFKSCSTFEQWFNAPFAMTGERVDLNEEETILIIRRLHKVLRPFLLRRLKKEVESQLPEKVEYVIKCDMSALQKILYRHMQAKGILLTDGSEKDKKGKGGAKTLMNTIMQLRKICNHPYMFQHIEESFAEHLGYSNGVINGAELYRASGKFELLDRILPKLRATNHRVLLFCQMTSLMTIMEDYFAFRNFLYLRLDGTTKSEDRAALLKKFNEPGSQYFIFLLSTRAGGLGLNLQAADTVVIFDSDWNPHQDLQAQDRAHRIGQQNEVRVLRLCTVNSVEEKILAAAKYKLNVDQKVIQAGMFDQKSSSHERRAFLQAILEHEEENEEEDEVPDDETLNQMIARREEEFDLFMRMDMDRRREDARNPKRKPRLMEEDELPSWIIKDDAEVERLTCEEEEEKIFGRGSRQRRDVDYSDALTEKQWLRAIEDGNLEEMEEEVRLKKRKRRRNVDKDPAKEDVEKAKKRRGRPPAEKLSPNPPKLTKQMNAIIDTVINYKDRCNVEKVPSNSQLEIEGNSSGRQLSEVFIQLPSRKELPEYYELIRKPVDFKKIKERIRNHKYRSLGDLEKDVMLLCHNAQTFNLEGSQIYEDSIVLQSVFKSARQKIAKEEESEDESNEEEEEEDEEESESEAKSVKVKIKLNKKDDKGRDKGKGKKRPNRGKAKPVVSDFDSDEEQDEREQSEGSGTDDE

| Compound | Dmax [1] | DC50 ([1]; A549 cells) | Dmax ([2]; 24 h) | DC50 ([2]; MV4-11 cells, 24 h) | Selectivity in MV411 ([2]; MV4-11 cells) | Dmax [3] | DC50 ([3]; MV4-11 cells) | SMARCA2 MSD A549 degradation 24 h: Average Dmax % ([1]; A549 cells) | SMARCA2 MSD MV411 degradation 24 h: average Dmax % ([2]; MV4-11 cells, 24 h) | SMARCA4 MSD MV411 degradation 24 h: average Dmax % ([3]; MV4-11 cells) |
| --- | --- | --- | --- | --- | --- | --- | --- | --- | --- | --- |
| Cc1ncsc1-c1ccc(CNC(=O)[C@@H]2C[C@@H](O)CN2C(=O)C(c2cc(OCCCCN3CCC(c4cnc(N5CCN6c7cc(-c8ccccc8O)nnc7NC[C@H]6C5)nc4)CC3)no2)C(C)C)cc1 (stereo partly drawn) [I-50, (2S,4R)-4-hydroxy-1-(2-(3-(4-(4-(2-((S)-2-(2-hydroxyphenyl)-6a,7,9,10-tetrahydro-5H-pyrazino[1′,2′:4,5]pyrazino[2,3-c]pyridazin-8(6H)-yl)pyrimidin-5-yl)piperidin-1-yl)butoxy)isoxazol-5-yl)-3-methylbutanoyl)-N-(4-(4-methylthiazol-5-yl)benzyl)pyrrolidine-2-carboxamide] | > 90% | < 10 nM | > 90% | < 1 nM | D (D (<10 fold)) | > 90% | 1 to 10 nM |  |  |  |
| Cc1ncsc1-c1ccc(CNC(=O)[C@@H]2C[C@@H](O)CN2C(=O)C(c2cc(OCCCCN3CCC(c4cnc(N5CCN6c7cc(-c8ccccc8O)nnc7NC[C@@H]6C5)nc4)CC3)no2)C(C)C)cc1 (stereo partly drawn) [I-51, (2S,4R)-4-hydroxy-1-(2-(3-(4-(4-(2-((R)-2-(2-hydroxyphenyl)-6a,7,9,10-tetrahydro-5H-pyrazino[1′,2′:4,5]pyrazino[2,3-c]pyridazin-8(6H)-yl)pyrimidin-5-yl)piperidin-1-yl)butoxy)isoxazol-5-yl)-3-methylbutanoyl)-N-(4-(4-methylthiazol-5-yl)benzyl)pyrrolidine-2-carboxamide] | 70 to 90% | 10 to 50 nM | > 90% | < 1 nM | D (D (<10 fold)) | > 90% | 1 to 10 nM |  |  |  |
| Cc1ncsc1-c1ccc(CNC(=O)[C@@H]2C[C@@H](O)CN2C(=O)[C@@H](NC(=O)N2CC3(CC(N4CCC(c5cnc(N6CCc7[nH]c8nnc(-c9ccccc9O)cc8c7[C@H]6C)nc5)CC4)C3)C2)C(C)(C)C)cc1 [I-58, N—((S)-1-((2S,4R)-4-hydroxy-2-((4-(4-methylthiazol-5-yl)benzyl)carbamoyl)pyrrolidin-1-yl)-3,3-dimethyl-1l-oxobutan-2-yl)-6-(4-(2-((R)-3-(2-hydroxyphenyl)-5-methyl-7,8-dihydro-5H-pyrido [3′, 4′: 4,5]pyrrolo [2,3-c]pyridazin-6(9H)-yl)pyrimidin-5-yl)piperidin-1-yl)-2-azaspiro[3.3]heptane-2-carboxamide] | > 90% | 10 to 50 nM | 70 to 90% | 1 to 10 nM | B (B (>100-500 fold)) | 50 to 70% | > 100 nM |  |  |  |
| Cc1ncsc1-c1ccc(CNC(=O)[C@@H]2C[C@@H](O)CN2C(=O)[C@@H](NC(=O)N2CC3(CCC(N4CCC(c5cnc(N6CCc7[nH]c8nnc(-c9ccccc9O)cc8c7C6C)nc5)CC4)CC3)C2)C(C)(C)C)cc1 (some centres unmarked) [I-62] | 70 to 90% | > 100 nM | < 50% | > 100 nM | C (C (10-100 fold)) | < 50% | > 100 nM |  |  |  |
| Cc1ncsc1-c1ccc(CNC(=O)[C@@H]2C[C@@H](O)CN2C(=O)[C@@H](NC(=O)N2CC3(CC(N4CCC(c5cnc(N6CCN7c8cc(-c9ccccc9O)nnc8NC[C@H]7C6)nc5)CC4)C3)C2)C(C)(C)C)cc1 [I-64] | > 90% | 10 to 50 nM | > 90% | 1 to 10 nM | C (C (10-100 fold)) | 50 to 70% | 10 to 100 nM |  |  |  |
| COc1cc(C(C(=O)N2C[C@H](O)C[C@H]2C(=O)NCC#Cc2ccccc2OCCCCN2CCC(c3cnc(N4CCN5c6cc(-c7ccccc7O)nnc6NC[C@H]5C4)nc3)CC2)C(C)C)on1 (some centres unmarked) [I-74] | > 90% | 10 to 50 nM | > 90% | < 1 nM | C (C (10-100 fold)) | > 90% | 1 to 10 nM |  |  |  |
| Cc1ncsc1-c1ccc(CNC(=O)[C@@H]2C[C@@H](O)CN2C(=O)[C@@H](NC(=O)C2CC3(C2)CC(N2CCC(N4CCC(N5CCN6c7cc(-c8ccccc8O)nnc7NC[C@H]6C5)CC4)CC2)C3)C(C)(C)C)cc1 (some centres unmarked) [I-75] | > 90% | > 100 nM | 70 to 90% | 1 to 10 nM | A (A (>500 fold)) | < 50% | > 100 nM |  |  |  |
| Cc1ncsc1-c1ccc(CNC(=O)[C@@H]2C[C@@H](O)CN2C(=O)[C@@H](NC(=O)[C@H]2CC3(CC[C@H](N4CCN(c5ccnc(N6CCc7[nH]c8nnc(-c9ccccc9O)cc8c7[C@H]6C)n5)CC4)CC3)C2)C(C)(C)C)cc1 (some centres unmarked) [I-80] | > 90% | < 10 nM | > 90% | < 1 nM | C (C (10-100 fold)) | > 90% | 1 to 10 nM |  |  |  |
| Cc1ncsc1-c1ccc(CNC(=O)[C@@H]2C[C@@H](O)CN2C(=O)[C@@H](NC(=O)N2CC3(CC(N4CCN(c5cnc(N6CCc7[nH]c8nnc(-c9ccccc9O)cc8c7[C@H]6C)nc5)CC4)C3)C2)C(C)(C)C)cc1 [I-82] | > 90% | < 10 nM | > 90% | 1 to 10 nM | C (C (10-100 fold)) | 70 to 90% | 10 to 100 nM |  |  |  |
| Cc1ncsc1-c1ccc(CNC(=O)[C@@H]2C[C@@H](O)CN2C(=O)[C@@H](NC(=O)[C@H]2CC[C@H](c3ccc(-c4cnc(N5CCN6c7cc(-c8ccccc8O)nnc7NC[C@H]6C5)nc4)cc3)CC2)C(C)(C)C)cc1 [I-85] | > 90% | 50 to 100 nM | 70 to 90% | 10 to 100 nM | C (C (10-100 fold)) | < 50% | > 100 nM |  |  |  |
| Cc1ncsc1-c1ccc(CNC(=O)[C@@H]2C[C@@H](O)CN2C(=O)[C@@H](NC(=O)[C@H]2CC[C@@H](c3ccc(-c4cnc(N5CCN6c7cc(-c8ccccc8O)nnc7NC[C@H]6C5)nc4)cc3)CC2)C(C)(C)C)cc1 [I-86] | > 90% | < 10 nM | > 90% | < 1 nM | C (C (10-100 fold)) | > 90% | 1 to 10 nM |  |  |  |
| C#Cc1ccc(CNC(=O)[C@@H]2C[C@@H](O)CN2C(=O)[C@@H](NC(=O)C2CCC3(CC2)CC(N2CCC(N4CCC(C(=O)N5CCN6c7cc(-c8ccccc8O)nnc7NC[C@H]6C5)CC4)CC2)C3)C(C)(C)C)cc1 (some centres unmarked) [I-89] | > 90% | > 100 nM | 70 to 90% | 1 to 10 nM | A (A (>500 fold)) | < 50% | > 100 nM |  |  |  |
| C#Cc1ccc(CNC(=O)[C@@H]2C[C@@H](O)CN2C(=O)[C@@H](NC(=O)C2CCC3(CC2)CC(N2CCC(N4CC(C(=O)N5CCN6c7cc(-c8ccccc8O)nnc7NC[C@H]6C5)C4)CC2)C3)C(C)(C)C)cc1 (some centres unmarked) [I-92] | > 90% | > 100 nM | 70 to 90% | 1 to 10 nM | C (C (10-100 fold)) | 50 to 70% | > 100 nM |  |  |  |
| Cc1ncsc1-c1ccc(CNC(=O)[C@@H]2C[C@@H](O)CN2C(=O)[C@@H](NC(=O)[C@H]2CCC3(CC2)C[C@H](N2CCC(c4ccc(N5CCN6c7cc(-c8ccccc8O)nnc7NC[C@H]6C5)nc4)CC2)C3)C(C)(C)C)cc1 (some centres unmarked) [I-94] |  | 10 to 50 nM |  | 1 to 10 nM | C (C (10-100 fold)) |  | 10 to 100 nM | A (A (>90% degradation)) | B (B (>70-90% degradation)) | C (C (50-70% degradation)) |
| C#Cc1ccc(CNC(=O)[C@@H]2C[C@@H](O)CN2C(=O)[C@@H](NC(=O)C2CCC3(CC2)CC(N2CCC(c4ccc(N5CCN6c7cc(-c8ccccc8O)nnc7NC[C@H]6C5)cc4)CC2)C3)C(C)(C)C)cc1 (some centres unmarked) [I-95] | < 50% | > 100 nM | < 50% | > 100 nM | C (C (10-100 fold)) | < 50% | > 100 nM |  |  |  |
| Cc1ncsc1-c1ccc(CNC(=O)[C@@H]2C[C@@H](O)CN2C(=O)[C@@H](OC(=O)N2CC3(CC(N4CCN(c5cnc(N6CCN7c8cc(-c9ccccc9O)nnc8NC[C@H]7C6)nc5)CC4)C3)C2)C(C)(C)C)cc1 [I-96] | > 90% | < 10 nM | > 90% | < 1 nM | C (C (10-100 fold)) | > 90% | 1 to 10 nM |  |  |  |
| C#Cc1ccc(CNC(=O)[C@@H]2C[C@@H](O)CN2C(=O)[C@@H](NC(=O)N2CC3(CC(N4CCC(c5cnc(N6CCN7c8cc(-c9ccccc9O)nnc8NC[C@H]7C6)nc5)CC4)C3)C2)C(C)(C)C)cc1 [I-111] | > 90% | < 10 nM | > 90% | < 1 nM | C (C (10-100 fold)) | > 90% | 10 to 100 nM |  |  |  |
